Data published in PubChem BioAssay (NCI).
Values joined by “and” are separate entries in the source; they are usually repeats but may differ in a detail not shown here. Identical values can stand only once.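 In this assay, cells in 96-well plates receive the compound at five concentrations for 48 hours. Endpoints are linearly interpolated between the surrounding concentrations. GI50 is the concentration that inhibits growth by half. The concentration for full growth arrest is given as TGI.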

How the values were obtained:
Experiment in all cases: NCI tumour cell line growth inhibition, 48 h
MDA-N = system: MDA-N
DLD-1 colon = system: DLD-1 colon
DMS 273 small cell lung = system: DMS 273 small cell lung
HOP-18 NSCLC = system: HOP-18 NSCLC
KM20L2 colon = system: KM20L2 colon
M19-MEL melanoma = system: M19-MEL melanoma
RXF-631 renal = system: RXF-631 renal
SNB-78 CNS = system: SNB-78 CNS
XF 498 CNS = system: XF 498 CNS
P388/ADR leukemia = system: P388/ADR leukemia
SN12K1 renal = system: SN12K1 renal

SMILES	TGI (MDA-N)	TGI (DLD-1 colon)	TGI (DMS 273 small cell lung)	TGI (HOP-18 NSCLC)	TGI (KM20L2 colon)	TGI (M19-MEL melanoma)	TGI (RXF-631 renal) [µM]	TGI (SNB-78 CNS)	TGI (XF 498 CNS)	also measured
[N-]=[N+]=Nc1cc(=O)n2c3c(cccc13)CCC2	> 100 µM									
CC(C)C(=O)Nc1nc2c(ncn2C2OC(CO)C(O)C2O)c(=O)[nH]1 (configuration not stated)		> 100 µM	> 100 µM	> 100 µM	> 100 µM	> 100 µM	> 100	> 100 µM	> 100 µM	
CN[C@@H](C)[C@@H](NC)c1ccccc1		> 100 µM	> 100 µM	> 100 µM		> 100 µM	> 100	> 100 µM		
CCCO/S(=N\S(=O)(=O)c1ccccc1)c1ccccc1[N+](=O)[O-] (configuration not stated)		> 100 µM	> 100 µM		> 100 µM	> 100 µM	> 100	> 100 µM	> 100 µM	
c1ccc2c(c1)c1c(c3ccccc32)CN2CCCC2C1 (configuration not stated)	14.2 µM									
O=C(O)c1ccc(OCc2ccccc2)c(Cl)c1	> 100 µM									
O=[N+]([O-])c1ccc(N2N=C(c3ccc(NCc4nc5ccccc5[nH]4)cc3)CC2c2ccco2)cc1 (configuration not stated)		> 100 µM	51.8 µM	> 100 µM		> 100 µM				
O=S(=O)(c1ccccc1)C1CN2OC1(S(=O)(=O)c1ccccc1)CC2c1ccc(Br)cc1 (configuration not stated)		> 100 µM	> 100 µM		> 100 µM	> 100 µM	> 100		57.5 µM	
CC(=O)Oc1ccccc1C(=O)Nc1ncc([N+](=O)[O-])s1	> 90.1 µM									
COc1cc(C=O)c(-c2cc(OC)c(OC)cc2C=O)cc1OC		> 100 µM	> 100 µM	> 100 µM	> 100 µM	> 100 µM		> 100 µM		
CC(C)(S)C(N)C(=O)O (configuration not stated)	> 100 µM									
CC[C@H]1CN2CCc3cc(OC)c(OC)cc3[C@@H]2C[C@@H]1C[C@H]1NCCc2c1[nH]c1ccc(O)cc21	0.0568 µM and 0.182 µM	0.246 µM and 0.57 µM and 1.58 µM	0.084 µM and 0.024 µM	0.711 µM and 0.0824 µM and 0.449 µM	0.0858 µM and 0.47 µM and 0.241 µM	0.0461 µM and 0.076 µM and < 0.0112 µM		0.0828 µM and 0.0713 µM and 0.11 µM	0.0586 µM and 0.268 µM	GI50 (DLD-1 colon): 0.144 µM; GI50 (DMS 273 small cell lung): 0.0261 µM; GI50 (HOP-18 NSCLC): 0.188 µM and 0.0283 µM; GI50 (KM20L2 colon): 0.0317 µM and 0.0549 µM; GI50 (M19-MEL melanoma): 0.0164 µM and 0.0241 µM; GI50 (MDA-N): 0.0234 µM; TGI (P388/ADR leukemia): > 100 µM; TGI (SN12K1 renal): 2.64 µM; GI50 (SNB-78 CNS): 0.0273 µM and 0.0257 µM; GI50 (XF 498 CNS): 0.0415 µM
COC1(OC)CC2C(=O)N(Cc3ccccc3)C1C=C2S(=O)(=O)c1ccccc1 (configuration not stated)		27.6 µM		31.9 µM	33.1 µM	30.4 µM		74.4 µM	31.7 µM	
Cc1[nH]c(/C=C2\C(=O)Nc3ccccc32)c(C)c1CCC(=O)O	> 100 µM									
CC(C)N(C(=O)C12C3C4C1(I)C1C2C3(I)C41C(=O)N(C(C)C)C(C)C)C(C)C (configuration not stated)		> 100 µM	> 100 µM	> 100 µM	> 100 µM	> 70.9 µM	> 100		> 100 µM	
Cc1cc(NS(=O)(=O)c2ccc(Nc3c4ccccc4nc4c(C(=O)N5CCN(CCO)CC5)ccc(Cl)c34)cc2)no1		> 100 µM	> 100 µM		> 100 µM	> 100 µM	> 100		> 100 µM	
O=Cc1ccc2c(c1-c1c(C=O)ccc3c1OCO3)OCO2		> 100 µM	> 100 µM	> 100 µM	> 100 µM	> 100 µM		> 100 µM		
CCC1CCc2c(c(=O)oc3c2cc(OC)c2cccc(OC)c23)C1 (configuration not stated)		> 100 µM	> 100 µM	> 100 µM	> 100 µM	> 100 µM		> 100 µM	78.6 µM	
Cc1c(/C=N/NC(=O)c2ccc(Cl)cc2)c(=O)n(-c2ccccc2)n1C		> 100 µM	> 100 µM	> 100 µM	> 100 µM	> 100 µM		> 100 µM		
O=P1(c2ccccc2)CCCCC1		> 100 µM	> 100 µM	> 100 µM	> 100 µM			> 100 µM		
COc1cc2c(OC)cc1CSCc1sc(C)c(c1Br)CSC2		> 100 µM	> 100 µM	> 100 µM	> 100 µM	> 100 µM	> 100	> 100 µM	> 100 µM	
